Earlier results as cited in US9884121B2, “Biomaterials and a method for making and using same” (Alumend, LLC, priority 2007, dated 2018).

Tested on: Skin-to-skin
Details: U.S. Pat. No. 5,817,303

SMILES: C=C(C#N)C(=O)OCC [Ethyl cyanoacrylate]
- Shear Strength: 385 ± 119 g-f/cm^2
